Counter-ions that a name gives are not always drawn.
How the values were obtained:
HepG2 cells = assay: MTT assay for cell cytotoxicity against HepG2 cells; type: cell-based; details: for LD50 (50% lethal dose), MTT assay: HepG2 cells, 48 h, ± SD
Description: HepG2 cells (University of Salford stocks, purchased from American Type Culture Collection [ATCC], USA), were grown in medium consisting of RPMI 1640, 2 mM L-glutamine, HEPES, 10% fetal bovine serum, 1% nonessential amino acids, and 1% penicillin-streptomycin. Cells were calculated on a hemocytometer to make a new cell-medium solution to a concentration of 5,000 cells/100 μl, and 100 μl of this new cell solution was added into each well of the 96-well plate. After 24 h of incubation, 100-μl amounts of the drug prepared in the medium were added to the wells. This was repeated in triplicate, and the plate was incubated for a further 48 h ([56]). After the incubation period, 50 μl of MTT solution was added to each well and incubated for 3 h. The liquid in each well was aspirated carefully, 200 μl of DMSO was added to each well, and the results were read on the Ascent plate reader.

[1] = tested on: K1 strain of P. falciparum; assay: IC50 determination against K1 strain of P. falciparum, SYBR green-based assay, 72 h; type: cell-based; details: Plasmodium falciparum, K1, 72 h, read-out: IC50 against K1 strain of P. falciparum
Description: Based on the anecdotal evidence, two synthetic analogues of emetine dihydrochloride, (−)-R,S-dehydroemetine and (−)-S,S-dehydroisoemetine, were synthesized. Experiments to test drug efficacy were set up, and (−)-R,S-dehydroemetine was tested in 2-fold serial dilutions from 12.5 nM to 200 nM. A dose-response experiment was set up on synchronized ring stage cultures of the K1 strain of P. falciparum to be read at 72 h. […] (−)-S,S-dehydroisoemetine was tested in 2-fold serial dilutions from 0.625 μM to 10 μM. […]
Ring stage parasites were diluted to 0.5 to 1% parasitemia, 2.5% hematocrit (in a 96-well-plate format, 200-μl final well volume) and treated for 72 h. Dose-response parasitemia was determined using the SYBR green-based flow cytometer or plate reader method previously optimized in the laboratory ([14]).
Following drug efficacy experiments, 150-μl amounts from the control and drug-treated wells on a 96-well plate were transferred to microcentrifuge tubes, and samples were washed once with phosphate-buffered saline (PBS). […] Parasitemia was determined by measuring SYBR green fluorescence using the FITC channel of the BD FACSVerse flow cytometer system (blue laser; excitation laser line, 488 nm, with excitation maximum of 494 nm and emission maximum of […]) and cell size (forward scatter [FSC-A]). Fifty thousand events were recorded, in three replicates for each. […]

[2] = tested on: K1 strain P. falciparum, unsynchronized cultures; assay: IC50 speed assay (time course) using unsynchronized cultures; type: cell-based, Plasmodium falciparum; details: for 24-h IC50 / Time by which the IC50 was reached: unsynchronized cultures; for 24-h IC50: 24 h exposure; for Time by which the IC50 was reached: IC50 speed assay
Description: Following drug efficacy experiments, 150-μl amounts from the control and drug-treated wells on a 96-well plate were transferred to microcentrifuge tubes, and samples were washed once with phosphate-buffered saline (PBS). The supernatant was removed, and samples were incubated in the dark at room temperature for 20 min following the addition of 1 ml of 5× SYBR green solution (prepared by adding 5 μl of 10,000× SYBR green to 10 ml PBS). After staining, the samples were centrifuged for 1 min at 14,000 rpm and the supernatant was discarded. Samples were resuspended in 250 μl of 0.37% formaldehyde fixation solution prepared by diluting 36.5% formaldehyde (Sigma, UK) with PBS to the specified final concentration. The samples were placed in the refrigerator and incubated at 4°C for 15 min. Subsequently, PBS was used to wash the samples 3 times, and finally, the samples were suspended in 1 ml PBS. Parasitemia was determined by measuring SYBR green fluorescence using the FITC channel of the BD FACSVerse flow cytometer system (blue laser; excitation laser line, 488 nm, with excitation maximum of 494 nm and emission maximum of […]) and cell size (forward scatter [FSC-A]). Fifty thousand events were recorded, in three replicates for each. Fluorescence events in drug-treated samples were compared with those in their infected and uninfected blood counterparts and gated accordingly to obtain the percentages of parasitemia.
The IC50 speed assay was used to determine the speeds of action of the emetine analogues. Unsynchronized cultures of K1 strain P. falciparum were used, and parasites were grown in the presence of (−)-R,S-dehydroemetine and (−)-S,S-dehydroisoemetine for three incubation periods of 24 h, 48 h, and 72 h. The assays were analyzed by determining SYBR green fluorescence as described above.
The results for the infected-blood controls were set at 100% for normalization, and percentages of parasitemia for drug-treated samples were calculated relative to the results for the infected controls. For IC50 values, GraphPad Prism 5.0 was used to further process the data. IC50 values were calculated using nonlinear regression (GraphPad Prism 5.0) by using log-transformed drug concentrations plotted against the dose response. The log(inhibitor) versus normalized response-variable slope option was used for IC50 calculation. Emetine dihydrochloride was used as a control drug to validate the method.

CCC1=C(C[C@H]2NCCc3cc(OC)c(OC)cc32)C[C@H]2c3cc(OC)c(OC)cc3CCN2C1 [(−)-R,S-dehydroemetine, (S)-2-((R)-6,7-dimethoxy-1,2,3,4-tetrahydro-isoquinolin-1-ylmethyl)-3-ethyl-9,10-dimethoxy-1,6,7,11b-tetrahydro-4H-pyrido[2,1-a]isoquinoline * dihydrobromide]
Selectivity index, LD50 HepG2 cells/IC50 parasites (HepG2 cells): 2.37
LD50 (50% lethal dose), MTT assay (HepG2 cells): 168.07 ± 8.65 nM
IC50 [1]: 71 ± 6.1 nM
% Parasitaemia ([2]; 25 nM, 24 hours): 99.25%
% Parasitaemia ([2]; 25 nM, 48 hours): 95.85%
% Parasitaemia ([2]; 25 nM, 72 hours): 98.62%
% Parasitaemia ([2]; 50 nM, 24 hours): 93.88%
% Parasitaemia ([2]; 50 nM, 48 hours): 69.64%
% Parasitaemia ([2]; 50 nM, 72 hours): 89.44%
% Parasitaemia ([2]; 100 nM, 24 hours): 89.00%
% Parasitaemia ([2]; 100 nM, 48 hours): 30.44%
% Parasitaemia ([2]; 100 nM, 72 hours): 17.06%
% Parasitaemia ([2]; 200 nM, 24 hours): 77.03%
% Parasitaemia ([2]; 200 nM, 48 hours): 22.37%
% Parasitaemia ([2]; 200 nM, 72 hours): 13.20%
% Parasitaemia ([2]; 400 nM, 24 hours): 72.09%
% Parasitaemia ([2]; 400 nM, 48 hours): 19.29%
% Parasitaemia ([2]; 400 nM, 72 hours): 11.63%
24-h IC50 [2]: could not be reached within 24 h
Time by which the IC50 was reached [2]: ≤ 48 h

CCC1=C(C[C@@H]2NCCc3cc(OC)c(OC)cc32)C[C@H]2c3cc(OC)c(OC)cc3CCN2C1 [(−)-S,S-dehydroisoemetine, (S)-2-((S)-6,7-dimethoxy-1,2,3,4-tetrahydro-isoquinolin-1-ylmethyl)-3-ethyl-9,10-dimethoxy-1,6,7,11b-tetrahydro-4H-pyrido[2,1-a]isoquinoline * dihydrobromide]
Selectivity index, LD50 HepG2 cells/IC50 parasites (HepG2 cells): 0.69
LD50 (50% lethal dose), MTT assay (HepG2 cells): 1429 ± 180 nM
IC50 [1]: 2070 ± 260 nM
% Parasitaemia ([2]; 0.63 μM, 24 hours): 100.96%
% Parasitaemia ([2]; 0.63 μM, 48 hours): 83.33%
% Parasitaemia ([2]; 0.63 μM, 72 hours): 102.96%
% Parasitaemia ([2]; 1.25 μM, 24 hours): 95.69%
% Parasitaemia ([2]; 1.25 μM, 48 hours): 69.00%
% Parasitaemia ([2]; 1.25 μM, 72 hours): 74.67%
% Parasitaemia ([2]; 2.5 μM, 24 hours): 100.62%
% Parasitaemia ([2]; 2.5 μM, 48 hours): 45.41%
% Parasitaemia ([2]; 2.5 μM, 72 hours): 31.88%
% Parasitaemia ([2]; 5 μM, 24 hours): 92.15%
% Parasitaemia ([2]; 5 μM, 48 hours): 30.49%
% Parasitaemia ([2]; 5 μM, 72 hours): 22.99%
% Parasitaemia ([2]; 10 μM, 24 hours): 79.97%
% Parasitaemia ([2]; 10 μM, 48 hours): 24.20%
% Parasitaemia ([2]; 10 μM, 72 hours): 13.33%
24-h IC50 [2]: could not be reached within 24 h
Time by which the IC50 was reached [2]: ≤ 48 h

— publication PMC7179302, “Lead Optimization of Dehydroemetine for Repositioned Use in Malaria” (Antimicrobial Agents and Chemotherapy, 2020)
